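Compound exposure: 48 hours, 5 concentrations, 96-well plates. Abbreviation: GI50, concentration required for 50% inhibition of growth.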 Activity calls are given as the source filed them. Rule as the data show it: active = GI50 up to about 1.1 µM and inactive = higher.
Experiments:
Assay in all cases: growth of human tumour cells (NCI), 48 h
SK-MEL-5 = tested on: SK-MEL-5
NCI-H460 = tested on: NCI-H460
ACHN = tested on: ACHN
OVCAR-4 = tested on: OVCAR-4
BT-549 = tested on: BT-549
T47D = tested on: T47D
K562 = tested on: K562
MOLT-4 = tested on: MOLT-4
SF-539 = tested on: SF-539
SR = tested on: SR
SK-MEL-2 = tested on: SK-MEL-2
MCF7 = tested on: MCF7
UO-31 = tested on: UO-31
RPMI-8226 = tested on: RPMI-8226
HT-29 = tested on: HT-29
LOX IMVI = tested on: LOX IMVI
HCT-116 = tested on: HCT-116
M14 = tested on: M14
A549 = tested on: A549

Measured: GI50

O=[N+]([O-])/C(C(Cl)=C(Cl)Cl)=C(/Sc1ccccc1)N1CCCCC1
inactive: SK-MEL-5 24.5 µM | NCI-H460 > 100 µM | ACHN > 100 µM | OVCAR-4 > 66.7 µM | BT-549 > 100 µM | T47D 11.9 µM | K562 23.9 µM | MOLT-4 3.52 µM | SF-539 > 100 µM | SR 2.79 µM | SK-MEL-2 2.44 µM | MCF7 > 100 µM | UO-31 > 61.5 µM | RPMI-8226 > 100 µM | HT-29 > 100 µM | LOX IMVI 8.45 µM | HCT-116 37.8 µM | M14 > 69.2 µM | A549 > 93.5 µM

Cc1ccc2c(c1)C(C1Cc3cccc(C)c3C1=O)OC2=O (stereo not given)
inactive: SK-MEL-5 56.4 µM | NCI-H460 > 100 µM | ACHN > 100 µM | OVCAR-4 75.3 µM | BT-549 > 100 µM | T47D > 100 µM | K562 84.3 µM | MOLT-4 96.4 µM | SF-539 > 100 µM | SR 60.8 µM | SK-MEL-2 > 100 µM | MCF7 81.1 µM | UO-31 > 100 µM | RPMI-8226 30.3 µM | HT-29 > 100 µM | LOX IMVI 34.2 µM | HCT-116 > 100 µM | M14 > 100 µM | A549 > 100 µM

Cc1cc(C)c(S(=O)(=O)N(CCCCCCN)OCCCON(CCCCCCN)S(=O)(=O)c2c(C)cc(C)cc2C)c(C)c1
inactive: SK-MEL-5 1.82 µM | NCI-H460 1.64 µM | ACHN 2.55 µM | OVCAR-4 1.67 µM | BT-549 1.65 µM | T47D 1.91 µM | K562 3.61 µM | MOLT-4 2.44 µM | SF-539 2.28 µM | SR 2.51 µM | SK-MEL-2 1.89 µM | MCF7 1.91 µM | UO-31 2.06 µM | RPMI-8226 2.43 µM | HT-29 1.66 µM | LOX IMVI 1.7 µM | HCT-116 1.69 µM | M14 1.66 µM | A549 1.72 µM

CC1=NN(C(=O)CC(=O)Nc2cccc(Cl)c2)C(=O)C1/N=N/c1ccc(C(=O)O)cc1 (stereo not given)
inactive: SK-MEL-5 > 100 µM | NCI-H460 > 100 µM | ACHN > 100 µM | OVCAR-4 > 100 µM | BT-549 > 100 µM | T47D 37.2 µM | K562 > 100 µM | MOLT-4 78.5 µM | SF-539 > 100 µM | SR 48.9 µM | SK-MEL-2 > 100 µM | MCF7 > 100 µM | UO-31 65.2 µM | RPMI-8226 > 100 µM | HT-29 > 100 µM | LOX IMVI 82.4 µM | HCT-116 > 100 µM | M14 > 100 µM | A549 > 100 µM

Nc1nc(N)nc(CCCCc2nc(N)nc(N)n2)n1
inactive: SK-MEL-5 > 100 µM | NCI-H460 > 100 µM | ACHN > 100 µM | OVCAR-4 > 100 µM | BT-549 > 100 µM | T47D > 100 µM | K562 > 100 µM | MOLT-4 > 100 µM | SF-539 > 100 µM | SR > 100 µM | SK-MEL-2 > 100 µM | MCF7 > 100 µM | UO-31 > 100 µM | RPMI-8226 > 100 µM | HT-29 > 100 µM | LOX IMVI > 100 µM | HCT-116 > 100 µM | M14 > 100 µM | A549 > 100 µM

Cc1cc(NS(=O)(=O)c2ccc(Nc3c4ccccc4nc4ccc(C(=O)Nc5ccc(S(=O)(=O)N=C(N)N)cc5)cc34)cc2)no1
inactive: SK-MEL-5 > 100 µM | NCI-H460 > 100 µM | ACHN > 100 µM | OVCAR-4 > 100 µM | BT-549 > 100 µM | T47D > 100 µM | K562 > 100 µM | MOLT-4 > 100 µM | SF-539 > 100 µM | SR > 100 µM | SK-MEL-2 > 100 µM | MCF7 > 100 µM | UO-31 > 100 µM | RPMI-8226 > 100 µM | HT-29 > 100 µM | LOX IMVI > 100 µM | HCT-116 > 100 µM | M14 > 100 µM | A549 > 100 µM

CC1=CC(C)C(C)N(CCNS(=O)(=O)c2ccc(C)cc2)c2ccccc21 (stereo not given)
inactive: SK-MEL-5 > 10 µM | NCI-H460 12.8 µM | ACHN 15.8 µM | OVCAR-4 13.3 µM | BT-549 17.1 µM | T47D 10.8 µM | K562 14.7 µM | MOLT-4 12.2 µM | SF-539 13.4 µM | SR 16 µM | SK-MEL-2 12 µM | MCF7 14.2 µM | UO-31 16.5 µM | RPMI-8226 12.2 µM | HT-29 12.5 µM | LOX IMVI 10.2 µM | HCT-116 12.9 µM | M14 12.3 µM | A549 19.4 µM

N#CC1(C#N)NC(c2cccs2)C(C#N)(C#N)NC1c1cccs1 (stereo not given)
inactive: SK-MEL-5 26.7 µM | NCI-H460 37.3 µM | ACHN 25.4 µM | OVCAR-4 43.7 µM | BT-549 21.2 µM | T47D 51.2 µM | K562 22.4 µM | MOLT-4 23.3 µM | SF-539 19.9 µM | SR 28.2 µM | SK-MEL-2 14.2 µM | MCF7 12.2 µM | UO-31 42.6 µM | RPMI-8226 27.4 µM | HT-29 47.3 µM | LOX IMVI 19.7 µM | HCT-116 30.5 µM | M14 31.3 µM | A549 50.8 µM

CCCC[C@@H](C)/C=C1\CN2CCC[C@H]2[C@@](C)(OCc2ccccc2)[C@@H]1O
inactive: SK-MEL-5 > 50 µM | NCI-H460 > 16.7 µM | ACHN > 50 µM | OVCAR-4 > 50 µM | BT-549 > 50 µM | T47D 8.79 µM | K562 > 29.9 µM | MOLT-4 > 41.9 µM | SF-539 > 22.2 µM | SR > 50 µM | SK-MEL-2 > 50 µM | MCF7 > 50 µM | UO-31 > 13.2 µM | RPMI-8226 > 15.5 µM | HT-29 > 50 µM | LOX IMVI > 50 µM | HCT-116 > 50 µM | M14 > 50 µM | A549 > 43.7 µM

Oc1cccc2ccc(SSc3ccc4cccc(O)c4n3)nc12
inactive: SK-MEL-5 33.5 µM | NCI-H460 19.3 µM | ACHN 15.1 µM | OVCAR-4 16.1 µM | BT-549 21.1 µM | T47D 13.2 µM | K562 29.2 µM | MOLT-4 9.59 µM | SF-539 19.8 µM | SR 23.9 µM | SK-MEL-2 19.1 µM | MCF7 5.89 µM | UO-31 25.8 µM | RPMI-8226 26.1 µM | HT-29 18.7 µM | LOX IMVI 18.2 µM | HCT-116 18.2 µM | M14 16 µM | A549 31 µM

— ChEMBL document CHEMBL1201862, “PubChem BioAssay data set” (2004)
